{
  "source": "patent US20100086599A1",
  "about": "“ORAL MODIFIED RELEASE FORMULATIONS” (KAIROSMED GMBH, priority 2006, published 2010)",
  "key": {"[1]": {"details": "cited from earlier work"}, "[2]": {"details": "low pH-values; cited from earlier work"}, "SHBG": {"target": "T1, SHBG (Homo sapiens, UniProt P04278)", "T1 sequence (P04278 30-402)": "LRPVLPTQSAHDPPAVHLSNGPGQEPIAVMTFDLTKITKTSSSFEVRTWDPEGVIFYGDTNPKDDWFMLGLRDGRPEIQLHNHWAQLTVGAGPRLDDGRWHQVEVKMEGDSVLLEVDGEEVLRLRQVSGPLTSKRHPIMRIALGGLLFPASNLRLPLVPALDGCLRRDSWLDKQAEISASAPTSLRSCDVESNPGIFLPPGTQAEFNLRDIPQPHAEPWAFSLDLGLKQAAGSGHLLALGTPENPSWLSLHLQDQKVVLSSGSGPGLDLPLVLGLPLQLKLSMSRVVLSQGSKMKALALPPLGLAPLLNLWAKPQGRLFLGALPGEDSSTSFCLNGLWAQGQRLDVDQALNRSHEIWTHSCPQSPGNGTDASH", "details": "cited from earlier work"}, "SHBG or CBG serum levels": {"test_system": "SHBG or CBG serum levels", "details": "in vivo; cited from earlier work"}, "[3]": {"assay": "clinical Phase Ia study: pharmacokinetics of oral 8-PN", "type": "in vivo, women", "source_text": "The pharmacokinetic profile of 8-PN is characterized by a complete oral absorption, a low degree of metabolization (less than 60% of dose) and a high pre-systemic elimination (first-liver-pass excretion, about 55% of dose). The high and unexpected pre-systemic elimination leads to a collection of substantial dose parts in the bile fluid from which these dose parts are secreted into the duodenum when gastric signaling occurs with a meal uptake. Respective dose parts are then absorbed again and reach systemic circulation. Data were taken from the clinical Phase la study and represent two volunteers of the lowest dose group (50 mg 8-Prenylnaringenin).\nTaking the total area under the curve as a measure for 8-Prenyinaringenin systemic availability, the percentage of the area under the second peak (generated by reabsorption of the pre-systemically eliminated and then biliary secreted dose parts) can be used to estimate those dose parts which undergo pre-systemic elimination after oral dosing. On an average of six women investigated this figure is 54±20%.\nRe-increases in drug serum levels show re-absorption of dose parts collected in the bile fluid and subsequently secreted triggered by lunch."}, "CYP isoenzymes": {"test_system": "CYP isoenzymes", "assay": "metabolism by CYP isoenzymes", "type": "in vitro ADME"}, "[4]": {"assay": "pH-dependent solubility and in vitro dissolution of 8-PN", "type": "physicochemical", "source_text": "The solid oral modified release formulations of this invention show a pH-independent drug release in vitro. This is important as the pH varies considerably in the gastro-intestinal tract and continuous release should be achieved independent of the pH. In contrast to C21-progestins (MPA, CPA, DRSP), however, the solubility of 8-PN is pH-dependent. […] The low acid solubility property of 8-Prenylnaringenin results in vitro in slow drug dissolution at pH 1, whereas the dissolution is fast at higher pH-values such as pH 6.8. The resulting dissolution profiles are different at different pH-values. This problem is solved by the solid oral modified release formulation of this invention. […]"}, "PR": {"target": "T2, PR (Homo sapiens, UniProt P06401)", "T2 sequence (P06401 1-933)": "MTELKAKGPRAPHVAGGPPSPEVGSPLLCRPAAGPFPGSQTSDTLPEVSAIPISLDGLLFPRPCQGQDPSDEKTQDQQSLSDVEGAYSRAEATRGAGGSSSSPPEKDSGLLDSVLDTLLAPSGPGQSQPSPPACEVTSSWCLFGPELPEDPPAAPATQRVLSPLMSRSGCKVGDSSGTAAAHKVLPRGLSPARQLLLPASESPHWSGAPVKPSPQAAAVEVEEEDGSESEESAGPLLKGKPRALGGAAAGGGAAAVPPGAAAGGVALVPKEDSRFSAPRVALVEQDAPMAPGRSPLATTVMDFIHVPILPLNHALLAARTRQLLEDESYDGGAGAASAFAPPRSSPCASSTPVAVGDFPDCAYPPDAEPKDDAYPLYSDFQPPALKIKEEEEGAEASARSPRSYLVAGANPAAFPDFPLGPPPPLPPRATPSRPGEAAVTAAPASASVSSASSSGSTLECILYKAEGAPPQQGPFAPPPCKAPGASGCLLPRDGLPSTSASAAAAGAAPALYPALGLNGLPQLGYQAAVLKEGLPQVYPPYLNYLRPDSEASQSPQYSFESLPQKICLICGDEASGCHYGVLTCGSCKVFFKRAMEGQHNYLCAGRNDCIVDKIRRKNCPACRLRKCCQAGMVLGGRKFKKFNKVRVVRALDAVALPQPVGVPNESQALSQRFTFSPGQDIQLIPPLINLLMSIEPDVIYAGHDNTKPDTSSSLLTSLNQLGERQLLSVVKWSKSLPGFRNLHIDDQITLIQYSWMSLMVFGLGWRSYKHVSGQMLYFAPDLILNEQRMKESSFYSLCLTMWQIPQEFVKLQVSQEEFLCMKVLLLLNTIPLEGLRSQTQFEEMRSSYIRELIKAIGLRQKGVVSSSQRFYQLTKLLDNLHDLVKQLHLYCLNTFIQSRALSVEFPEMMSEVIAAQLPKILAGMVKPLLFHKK", "details": "cited from earlier work"}, "AR": {"target": "T3, AR (Homo sapiens, UniProt P10275)", "T3 sequence (P10275 1-920)": "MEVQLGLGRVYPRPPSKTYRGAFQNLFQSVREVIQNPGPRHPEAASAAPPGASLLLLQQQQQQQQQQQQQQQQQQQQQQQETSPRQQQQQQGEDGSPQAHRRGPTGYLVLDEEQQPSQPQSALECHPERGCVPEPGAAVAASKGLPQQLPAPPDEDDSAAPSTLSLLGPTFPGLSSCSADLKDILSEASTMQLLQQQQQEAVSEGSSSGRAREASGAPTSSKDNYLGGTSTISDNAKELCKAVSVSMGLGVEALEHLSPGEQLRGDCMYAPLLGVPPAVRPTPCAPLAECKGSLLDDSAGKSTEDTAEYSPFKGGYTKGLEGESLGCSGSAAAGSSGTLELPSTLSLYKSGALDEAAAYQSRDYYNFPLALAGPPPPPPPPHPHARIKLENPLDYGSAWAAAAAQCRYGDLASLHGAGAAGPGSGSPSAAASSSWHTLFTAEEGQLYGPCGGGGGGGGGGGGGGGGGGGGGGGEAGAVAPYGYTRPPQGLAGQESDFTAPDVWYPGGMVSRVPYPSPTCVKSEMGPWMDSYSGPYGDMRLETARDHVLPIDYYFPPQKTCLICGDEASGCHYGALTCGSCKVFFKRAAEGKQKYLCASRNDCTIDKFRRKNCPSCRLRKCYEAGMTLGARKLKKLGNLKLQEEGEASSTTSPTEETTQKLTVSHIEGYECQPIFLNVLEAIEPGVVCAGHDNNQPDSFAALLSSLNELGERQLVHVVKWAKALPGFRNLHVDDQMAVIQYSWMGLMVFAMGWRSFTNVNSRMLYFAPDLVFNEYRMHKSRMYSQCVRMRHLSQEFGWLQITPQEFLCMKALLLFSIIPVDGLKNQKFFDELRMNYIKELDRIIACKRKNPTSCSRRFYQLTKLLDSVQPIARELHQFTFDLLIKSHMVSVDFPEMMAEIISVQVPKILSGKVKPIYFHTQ", "details": "cited from earlier work"}, "GR": {"target": "T4, GR (Homo sapiens, UniProt P04150)", "T4 sequence (P04150 1-777)": "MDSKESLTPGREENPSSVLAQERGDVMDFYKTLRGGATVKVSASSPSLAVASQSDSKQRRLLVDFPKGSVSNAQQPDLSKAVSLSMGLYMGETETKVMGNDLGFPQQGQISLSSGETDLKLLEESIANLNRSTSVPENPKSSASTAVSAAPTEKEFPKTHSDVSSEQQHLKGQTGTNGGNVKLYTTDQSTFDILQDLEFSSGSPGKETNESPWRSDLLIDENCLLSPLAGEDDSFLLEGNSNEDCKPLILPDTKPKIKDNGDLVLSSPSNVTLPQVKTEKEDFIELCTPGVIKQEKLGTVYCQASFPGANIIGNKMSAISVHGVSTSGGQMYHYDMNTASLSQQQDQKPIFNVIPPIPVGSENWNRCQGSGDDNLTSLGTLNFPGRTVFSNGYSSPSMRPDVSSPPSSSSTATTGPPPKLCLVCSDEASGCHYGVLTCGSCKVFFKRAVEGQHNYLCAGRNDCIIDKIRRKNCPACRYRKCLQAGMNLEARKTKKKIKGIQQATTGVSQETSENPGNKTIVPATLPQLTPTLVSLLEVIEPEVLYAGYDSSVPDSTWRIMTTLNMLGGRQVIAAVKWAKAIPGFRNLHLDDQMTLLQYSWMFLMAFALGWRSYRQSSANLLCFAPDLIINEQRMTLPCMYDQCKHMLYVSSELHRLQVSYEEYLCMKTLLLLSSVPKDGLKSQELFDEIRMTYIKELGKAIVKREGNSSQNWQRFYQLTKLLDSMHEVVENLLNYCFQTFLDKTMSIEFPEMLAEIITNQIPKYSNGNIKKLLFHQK", "details": "cited from earlier work"}, "estrogen receptor": {"test_system": "estrogen receptor", "details": "cited from earlier work"}, "[5]": {"details": "cited from earlier work", "remark": "listed apart in the source"}, "[6]": {"details": "3 mg oral, daily repeated administration"}, "[7]": {"details": "single oral intake of 3 mg DRSP"}},
  "note": "“Also recorded” adds a separate entry of the source. Read-outs that look alike come from different tables or passages of the source.",
  "data": [
    {"smiles": "C[C@]12CCC(=O)C=C1[C@@H]1C[C@@H]1[C@H]1[C@@H]3[C@@H]4C[C@@H]4[C@@]4(CCC(=O)O4)[C@@]3(C)CC[C@@H]12", "note": "[DRSP, Drospirenone]", "values": [
      {"measurement": "AUC", "setting": "[1]; [6]", "value": "about 920 ng×h/ml"},
      {"measurement": "maximum serum level", "setting": "[1]; [6]", "value": "about 80 ng/ml"},
      {"measurement": "apparent volume of distribution", "setting": "[1]; in vivo", "value": 4, "unit": "L/kg"},
      {"measurement": "disposition half-life", "setting": "[1]; in vivo", "value": 31, "unit": "h"},
      {"measurement": "metabolism", "setting": "[1]; mainly by CYP3A4", "value": "only slightly metabolized"},
      {"measurement": "oral absorption", "setting": "[1]; oral", "value": "complete"},
      {"measurement": "AUC0-24h", "setting": "[1]; [7]", "value": 288, "unit": "ng·h/mL"},
      {"measurement": "maximum serum levels", "setting": "[1]; [7]", "value": 37, "unit": "ng/mL"},
      {"measurement": "time at which maximum serum levels were reached", "setting": "[1]; [7]", "value": 1.7, "unit": "h"},
      {"measurement": "stability (opening of carbolactone ring to the inactive acid)", "setting": "[2]", "value": "sensitive to low pH-values"},
      {"measurement": "binding to SHBG", "setting": "SHBG", "value": "does not bind"},
      {"measurement": "suppression of EE induced SHBG or CBG serum levels", "setting": "SHBG or CBG serum levels", "value": "does not suppress"}
    ]},
    {"smiles": "CC(C)=CCc1c(O)cc(O)c2c1OC(c1ccc(O)cc1)CC2=O", "note": "(stereo not shown) [Example 8-PN, 5,7-Dihydroxy-2-(4-hydroxyphenyl)-8-(3-methylbut-2-enyl)-chroman-4-on]", "values": [
      {"measurement": "degree of metabolization", "setting": "[3]; oral", "value": "less than 60 % of dose"},
      {"measurement": "oral absorption", "setting": "[3]; oral", "value": "complete"},
      {"measurement": "pre-systemic elimination (first-liver-pass excretion)", "setting": "[3]; oral", "value": "about 55 % of dose"},
      {"measurement": "CV of mean AUC", "setting": "[3]; oral dose 250 mg", "value": 42, "unit": "%"},
      {"measurement": "CV of mean AUC", "setting": "[3]; oral dose 750 mg", "value": 29, "unit": "%"},
      {"measurement": "percentage of the area under the second peak of total AUC (dose parts undergoing pre-systemic elimination)", "setting": "[3]; oral, average of six women", "value": "54±20", "unit": "%"},
      {"measurement": "metabolism by CYP isoenzymes", "setting": "CYP isoenzymes", "value": "surprisingly low extent of metabolism; also recorded: high metabolic stability"},
      {"measurement": "metabolism by CYP isoenzymes", "setting": "CYP isoenzymes; listed as 8-Prenylnaringenin", "value": "high metabolic stability"},
      {"measurement": "solubility", "setting": "[4]; higher at higher pH-values, low at lower pH-values", "value": "pH-dependent"},
      {"measurement": "drug dissolution in vitro", "setting": "[4]; pH 1", "value": "slow"},
      {"measurement": "drug dissolution in vitro", "setting": "[4]; pH 6.8", "value": "fast"},
      {"measurement": "binding or activation of the PR", "setting": "PR", "value": "devoid of binding or activation"},
      {"measurement": "binding or activation of the AR", "setting": "AR", "value": "devoid of binding or activation"},
      {"measurement": "binding or activation of the GR", "setting": "GR", "value": "devoid of binding or activation"},
      {"measurement": "anti-estogenic activity", "setting": "estrogen receptor", "value": "without any anti-estogenic activity"}
    ]},
    {"smiles": "C[C@]12CC[C@@H]3c4ccc(O)cc4CC[C@H]3[C@@H]1CC[C@@H]2O", "note": "[Example E2, 17β-estradiol]", "values": [
      {"measurement": "coefficient of variation (CV) of the mean AUC", "setting": "[5]; oral 2 mg E2, N=14", "value": 127, "unit": "%"},
      {"measurement": "coefficient of variation (CV) of the mean AUC", "setting": "[5]; oral 4 mg E2, N=14", "value": 91, "unit": "%"},
      {"measurement": "coefficient of variation (CV) of the mean AUC", "setting": "[5]; oral 8 mg E2, N=14", "value": 70, "unit": "%"},
      {"measurement": "oral bioavailability", "setting": "[5]; oral", "value": "1-3 % of dose"}
    ]}
  ]
}
